As a reminder, the melting point is the temperature, or range, at which the solid turns liquid. Regarding `O=C(O)c1c[nH]c(=S)n1C1CCc2cc(F)cc(F)c2C1` (stereo unspecified), the melting point fell in the range of 207 to 208 °C. For the molecule `Cc1nc2ccccc2n(-c2ccc(Cl)cc2)c1=O`, the melting point was in the range of 185 to 187 °C.

On to `COc1cc(NC(=O)C(C#N)=CNc2ccc(OC)c(OCCCCl)c2)c(Cl)cc1Cl`, for which the melting point was 185 to 192 °C. On to `CC(c1ccc(Cl)cc1)N1Cc2sc3ncn(CCN4CCN(c5cccc6ccccc56)CC4)c(=O)c3c2C1` (stereo unspecified), for which the melting point worked out at 149 °C.

For the molecule `COc1ccc(-c2cc(C(F)(F)F)nn2-c2ccc(S(N)(=O)=O)cc2)cc1I`, the melting point is 220 to 224 °C.

Consider `C=C(C)COCC(C)C1CC=C2C3=C(CCC21C)C1(C)CCC(O)C(C)(C)C1CC3` (stereo unspecified), for which the melting point was in the range of 113 to 115 °C. The value for `CCCc1cc(N2CCN(c3ccncc3)CC2)ccc1OCCCC(=O)O` was 207 to 209 °C.

Take `COc1cccc(-c2ccc(-c3ccc(C(=O)O)cc3)cc2-c2ccc3c(c2)C(C)(C)CCC3(C)C)c1`: the melting point was in the range of 116 to 118 °C. The molecule `O=C(NC[C@@H](C(=O)NO)N1CCCCC1)c1ccc(OCc2cc(Cl)nc(Cl)c2)cc1` had a melting point of 145 °C.

As for `Cn1c(=O)c2c(Br)cccc2n2cnc(-c3nc(C4CC4)no3)c12`, the melting point lay in the range of 246 to 247 °C.

Molecule `N#Cc1cnc2ccc(NC(=O)C#CCN3CCOCC3)cc2c1Nc1cccc(Br)c1` had a melting point of 112 to 115 °C. `Cn1nc(-c2c(Cl)cncc2Cl)nc1C1(C)CC1(Cl)Cl` (stereo unspecified): the melting point lay within 79 to 83 °C.

On to `CC(C)(C)OC(=O)N1CCC(Oc2ccc3c(c2)NC(=O)CC3)CC1`, for which the melting point fell in the range of 158 to 160 °C. `CCOC(=O)c1cnc2n(c1=O)CCC2` had a melting point of 59 to 60 °C.

Consider `Cc1cccc(COc2cccnc2NC(=N)Nc2ccc(Cl)cc2)c1F`, for which the melting point lay in the range of 179 to 181 °C.

In turn, `Cc1nccn1-c1ccc(NC(=O)CCc2cnoc2-c2ccc(Cl)cc2)cn1` had a melting point of 193 to 194 °C. `N#Cc1ccc(C(=C2CCCC2)c2ncc[nH]2)cc1` had a melting point of 108 to 110 °C. Take `CC1CC(=O)Nc2nc(C#N)c3ncccc3c21` (stereo unspecified): the melting point is more than 300 °C. As for `CCc1nc2c(C)cc(C)nc2n1-c1ccc(CC(C)OC(=O)NS(=O)(=O)c2ccc(C)cc2)cc1` (stereo unspecified), the figure is 108 °C; as for `O=C(O)C(=NO)C(c1ccc(OCc2ccccn2)cc1)c1ccc(OCc2ccccn2)cc1`, 154 °C; as for `CC(CS)C(=O)N(C)c1cncc(C(=O)O)c1` (stereo unspecified), 190 to 192 °C. Take `COc1ccc(-c2ccc(C(C)O)cc2)cc1` (single isomer, unassigned; (+)): the melting point fell in the range of 132 to 133 °C.

Consider `O=C(O)c1cnc2n(c1=O)CCc1ccc(O)cc1-2`, for which the melting point lay within 326 to 327 °C.

`Cc1cc(-c2ccc(Cl)cc2)n2ncc(C#N)c2n1`: the melting point lay in the range of 285 to 287 °C. Take `O=C1Nc2ccc(Cl)cc2[C@@](/C=C/C2CC2)(C(F)(F)F)O[C@H]1C1CC1` (relative stereo): the melting point lay in the range of 143 to 144 °C. With `CCSc1cc(C(=O)O)cc(S(N)(=O)=O)c1Oc1ccccc1`, the melting point was in the range of 225 to 227 °C. With `COC(=O)c1ccccc1-c1ccc(CNc2nc(=O)[nH]c3ccccc23)cc1`, the melting point lay within 140 to 160 °C. Molecule `COCc1cc2c(cc1O)CCC1C2CCC2(C)C(=O)CCC12` (stereo unspecified) gave a melting point of 149 to 151 °C.

`CN1CCN(CNc2nc(OCc3ccc(F)cc3)ncc2F)CC1` gave a melting point of 125 to 126 °C.

`COc1ccccc1S(=O)(=O)N(C)c1cccc2cc(C3=NCC(CC(N)=O)S3)[nH]c12` (stereo unspecified): the melting point was in the range of 227 to 228 °C.

Regarding `CCOC(=O)C1=C(NC(=O)Nc2ccc(Cl)c(C(=O)OCC)c2)CCC1`, the melting point lay in the range of 110 to 112 °C.

In the case of `CCOC(=O)c1nc(N)sc1-c1nc2ccccn2c1C`, the melting point is 180 to 182 °C.

As to `O=C(O)c1cc(=O)c2cc(C(F)(F)F)ccc2[nH]1`, the melting point was in the range of 287 to 289 °C. Take `N=C(NO)c1ccc2c(c1)COC(N[C@@H]1CCc3ccccc31)=N2`: the melting point worked out at 206 °C. In turn, `Cc1ccc2nc(NC(=O)c3c(Cl)cccc3Cl)cc(NN)c2c1C` gave a melting point of 190 to 198 °C.

For the molecule `CCC(CC)(CC(=O)Nc1cccc(OCc2ccc3cccc(F)c3n2)c1)C(=O)O`, the melting point lay within 128 to 129 °C. As to `OCC(O)CNc1ncnc2c1ncn2C1OC(CO)C(O)C1O` (stereo unspecified), the melting point lay in the range of 164 to 165 °C. As for `COCCc1ccc(OCC(O)CNC2CCc3ccccc3C2)cc1` (stereo unspecified), the figure is 95 to 97 °C; as for `Cc1cc2cc(CN3CCC(CCCC(=O)N(C)C)CC3)cnc2cc1NC(=O)c1ccc(-c2ccc(F)cc2)cc1`, 194 °C; as for `Cc1ccc(-c2cc(N3CCCC3)c(C#N)c3c2-c2ccccc2C3=O)cc1`, 162 to 164 °C.

Take `CCN(CC)CCNC(=O)c1ccc(I)c2cc3ccccc3nc12`: the melting point was in the range of 103 to 105 °C.

Consider `Cc1cc([N+](=O)[O-])ccc1N=C1SC(=O)CN1CC(C)C`, for which the melting point stood at 152 °C. `CCCCCc1ccc(-c2ccc(-c3ccc(C)cc3)s2)cc1F` showed a melting point of 115 °C. Molecule `CC(=CC(=O)c1cccc(C(F)(F)F)c1)N(C)C` returned a melting point of 69 to 70 °C. `CC(C)C[C@H](NC(=O)c1ccc2c(c1)Nc1ccccc1S2)C(=O)N[C@H]1CCOC1OC(=O)C(C)(C)C` (stereo partly specified): the melting point lay within 107 to 109 °C. Molecule `COC(=O)C(=Cc1ccc(OC)c(OCCc2ccccc2)c1)C(=O)OC` gave a melting point of 105 to 106 °C.

`COc1ccc2cc(CC(O)C(C)=O)ccc2c1` (stereo unspecified) gave a melting point of 107 to 110 °C. The value for `CC(C)c1noc([C@]2(C)CC[C@H](NCC(=O)N3C[C@@H](F)C[C@H]3C#N)C2(C)C)n1` was 82 to 85 °C; that for `COC(=O)C1(C(N)=O)OC1c1ccccc1` (stereo unspecified) was 175 to 177 °C. `CCCCCCCCCCCCCCCCCCOc1cc(OCCCOc2ccc(O)cc2)cc(C(=O)OC)c1`: the melting point lay within 85 to 88 °C.

The molecule `COC(=O)C(Cc1ccc(-c2nc3ccc(OC)cc3n2C)cc1)N=[N+]=[N-]` (stereo unspecified) yielded a melting point of 105 to 107 °C. As for `CC(C)NP(N)(=O)NC(=O)c1ccc(F)cc1` (stereo unspecified), the figure is 197 to 199 °C.

In turn, `Cc1noc(NS(=O)(=O)c2c(Cl)sc(Cl)c2Br)c1Br` registered a melting point of 146 to 149 °C. `CC[C@H](NC(=O)OC(C)(C)C)C(=O)OCCCCNc1cccc2c1C(=O)c1ccccc1C2=O`: the melting point came out at 58 °C. Regarding `Cc1ccc(S(=O)(=O)N2CCCC2C(=O)NC(Cc2ccc(OCC(=O)OCc3ccccc3)cc2)C(=O)O)cc1` (stereo unspecified), the melting point was 79 to 81 °C. Molecule `COc1ccc(S(=O)(=O)N2C(=O)[C@@](c3ccccc3OC)(N3C[C@H](OC(=O)C4CCCCC4)C[C@H]3C(=O)N(C)C)c3cc(Cl)ccc32)c(OC)c1` registered a melting point of 197 to 198 °C. On to `NNP(=S)(Oc1ccccc1)Oc1ccccc1`, for which the melting point was in the range of 59 to 61 °C. `COC(=O)Nc1nc(C)c(-c2nc3ccccc3c(=O)n2-c2ccc(C(C)=O)cc2)s1` registered a melting point of 232 to 234 °C. As for `CC(=O)Nc1cc(F)c(OC(F)F)cc1[N+](=O)[O-]`, the figure is 72 to 74 °C; as for `CC1CCCN(CC(C)N2c3ccccc3Sc3ccc(C(N)=S)cc32)C1` (mixture of isomers), 236 °C. Take `CS(=O)(=O)N=C(NCC(=O)O)Nc1ccc(C#N)cc1`: the melting point was 170 °C.

(Values after a melting point compilation (Tetko et al.; mined from patent text by program, amines drawn as free bases though some values may be those of a salt).)
